Experimental data: patent publication US12351561B2, “Crystalline (2S,4R)-5-(5'-chloro-2'-fluoro-[1,1'-biphenyl]-4-yl)-2-(ethoxymethyl)-4-(3-hydroxyisoxazole-5-carboxamido)-2-methylpentanoic acid and uses thereof” (THERAVANCE BIOPHARMA R&D IP, LLC, priority 2016, dated 2025)

How the values were obtained:
NEP [1] = molecular target: T1, NEP (Homo sapiens, UniProt P08473); experiment: Assay 3.1: NEP activity in human (cGMP), single-ascending dose study; format: in vivo
T1 construct: from tissue; host or cells: healthy human volunteers (in vivo)
Method: A Phase 1 single-ascending dose (SAD) clinical trial of Compound I′ (Form I), which converts to or dissolves to provide its soluble form Compound I in the body, was conducted in order to assess neprilysin inhibition for the treatment of a range of cardiovascular and renal diseases, including, e.g., chronic kidney disease, diabetic nephropathy, acute and chronic heart failure, heart failure with reduced ejection fraction, heart failure with preserved ejection fraction, post-myocardial infarction asymptomatic left ventricular dysfunction (post-MI asymptomatic LVD), subacute heart failure and resistant and isolated systolic hypertension. Safety and tolerability, pharmacokinetic (support for QD/BID dosing and non-renal excretion), pharmacodynamic (test for target engagement biomarkers cGMP and ANP), food effect, and absolute oral bioavailability and renal elimination using a ^14C intravenous microtracer, inter alia, were tested.
The Phase 1 study was a double-blind, randomized placebo-controlled single ascending dose study in healthy male and female volunteers randomized in a 4:1 ratio. The study enrolled 56 healthy volunteers over multiple weeks for the ascending-dose portion, which included cohorts (n=10/cohort of 8 active and 2 placebo) administered single ascending doses of 50 mg, 100 mg, 200 mg, 400 mg and 600 mg. A sixth cohort (n=6) was administered i.v. microtracer and oral doses of 10 μg and 100 mg, respectively.
One goal of this study was to determine the mechanism/duration of action of Compound I after dosing in humans.

[2] = Assay 4: Phase 1 multiple-ascending dose study, safety and tolerability; format: in vivo, human; conditions: healthy adult and elderly subjects, multiple oral doses up to 14 days
Method: A Phase 1 multiple-ascending dose (MAD) clinical trial of Compound I′ (Form I) was conducted in order to further evaluate the safety, tolerability, pharmacokinetics of Compound I and its metabolite, pharmacodynamics of Compound I, food effect, absolute oral bioavailability and renal elimination of multiple ascending oral doses of Compound I′ in healthy adult and elderly subjects. As discussed below, the reported data confirms the results stemming from the SAD clinical trial.
(§1) The Phase 1 study was a double-blind, randomized placebo-controlled multiple ascending dose study in healthy male and female volunteers randomized in a 4:1 ratio. The study enrolled 50 healthy adult (19-55 years old) and elderly (65-80 years old) volunteers over multiple weeks for the ascending-dose portion, which included cohorts (n=10/cohort of 8 active and 2 placebo) administered (1) ascending doses of 50 mg, 100 mg, and 200 mg, (2) a dose of 10 mg studied in parallel with 200 mg for PK/PK, and (3) a dose of 100 mg for one elderly cohort. […] Additionally, renal elimination of Compound I was neglible after multiple dosing, e.g., <1% was observed on Day 1 and Day 14 for all subjects.

[3] = Assay 1: IV/PO pharmacokinetic study in dogs; format: in vivo, male beagle dogs; conditions: dog; for bioavailability / AUC(0-t): plasma; for bioavailability: po; for AUC(0-t): read-out: AUClast Mean
Method: (§2) Each rat, dog or monkey PK study began with formulation of the test compound. Appropriate masses of each test compound were added into a volume of vehicle (e.g. 5% sodium bicarbonate, 5% dextrose in H2O) such that the final concentration of each compound was appropriate to be dosed. Although a homogenous suspension were acceptable for oral dosing, intravenous dosing solutions were sterile-filtered (0.2 μm) prior to dosing to ensure no particulates were administered.
In the dog study, male non-naïve beagle dogs (3 per route) housed at Agilux Laboratories (Worcester, MA) and weighing between 9-14 kg received either an oral or intravenous dose. Oral doses were delivered into the stomach using a syringe and gavage tube followed by a water flush of approximately 10 mL. Oral doses were administered at a volume of 2 mL/kg. Intravenous doses were administered via a percutaneous catheter placed in sphenous vein followed by a saline flush of approximately 3 mL. Intravenous doses were administered at a volume of 0.5 mL/kg. […] Serial blood samples were harvested via direct venipuncture at 3 min, 15 min, 30 min, 1 h, 2 h, 4 h, 6 h, 8 h, 12 h, and 24 h post-dose. All samples were collected manually into microtainer tubes containing EDTA as the anticoagulant and were processed to plasma by refrigerated centrifugation.
(§3) Plasma concentrations of Compound I were determined by LC/MS/MS. Plasma study samples were vortexed and placed in a 96-well plate. The samples were extracted with 200 μL of acetonitrile with an internal standard. The extract was centrifuged for 10 minutes at 2809 RPM and 50 μL supernatant was mixed with 200 μL 0.2% formic acid in water. Samples (10-15 μL) were injected on a ThermoFisher HyPURITY™ (C18 50×2.1 mm) column with a flow rate of 0.35 mL/min. Mobile phase A consisted of water: acetonitrile: formic acid (95:5:0.1, v:v:v) and Mobile phase B consisted of methanol: acetonitrile: formic acid (50:50:0.1, v:v:v) (dog). Mobile phase A consisted of 0.2% formic acid in water and mobile phase B consisted of 0.2% formic acid in acetonitrile (rat and monkey). Pharmacokinetic parameters of Compound I were determined by non-compartmental analysis (Model 201 and Model 200 for IV and PO administration, respectively) using Phoenix WinNonlin Version 6.3 (Certara, Sunnyvale, CA) and using individual plasma concentration time profiles from 3 animals per treatment group.
(§4) Plasma clearance was determined from the intravenous arm of the study, and represents the rate at which plasma is cleared of drug. It is equal to the dose divided by the area under the plasma concentration-time curve. In addition to plasma clearance, it is also essential for an orally administered drug to reach efficacious systemic levels following oral delivery. Oral bioavailability is a measurement of plasma exposures following oral administration relative to exposures following intravenous administration.

[4] = Assay 1: IV/PO pharmacokinetic study in rats; format: in vivo, male Sprague-Dawley rats; conditions: rat; for AUC(0-t) / bioavailability: plasma; for AUC(0-t): read-out: AUClast Mean; for bioavailability: po
Method: as §2
In the rat study, pre-cannulated male Sprague-Dawley rats (3 per route) were obtained from Harlan Laboratories or Charles Rivers Laboratories. Rats received either a oral dose delivered into the stomach using a syringe and gavage tube or a intravenous (via lateral tail vein) dose of the dosing solution. The final dose was 0.5 mg/kg. Serial blood samples were harvested via the cannula implanted in the jugular vein at 3 min, 15 min, 30 min, 1 h, 2 h, 4 h, 6 h, and 24 h post-dose. Sampling was performed either manually or using automated blood samplers. Samples were collected into microtainer tubes containing EDTA as the anticoagulant and were processed to plasma by refrigerated centrifugation.
as §3, §4

NEP [5] = molecular target: T1, NEP; experiment: Assay 4.1: NEP activity in human (cGMP), multiple-ascending dose study; format: in vivo; conditions: healthy adult and elderly subjects, 10-200 mg once daily, Day 14, over 24 h
Method: as §1
Part of the MAD clinical studies was to determine the mechanism/duration of action of Compound I after dosing in humans.

T1 sequence (P08473 whole entry): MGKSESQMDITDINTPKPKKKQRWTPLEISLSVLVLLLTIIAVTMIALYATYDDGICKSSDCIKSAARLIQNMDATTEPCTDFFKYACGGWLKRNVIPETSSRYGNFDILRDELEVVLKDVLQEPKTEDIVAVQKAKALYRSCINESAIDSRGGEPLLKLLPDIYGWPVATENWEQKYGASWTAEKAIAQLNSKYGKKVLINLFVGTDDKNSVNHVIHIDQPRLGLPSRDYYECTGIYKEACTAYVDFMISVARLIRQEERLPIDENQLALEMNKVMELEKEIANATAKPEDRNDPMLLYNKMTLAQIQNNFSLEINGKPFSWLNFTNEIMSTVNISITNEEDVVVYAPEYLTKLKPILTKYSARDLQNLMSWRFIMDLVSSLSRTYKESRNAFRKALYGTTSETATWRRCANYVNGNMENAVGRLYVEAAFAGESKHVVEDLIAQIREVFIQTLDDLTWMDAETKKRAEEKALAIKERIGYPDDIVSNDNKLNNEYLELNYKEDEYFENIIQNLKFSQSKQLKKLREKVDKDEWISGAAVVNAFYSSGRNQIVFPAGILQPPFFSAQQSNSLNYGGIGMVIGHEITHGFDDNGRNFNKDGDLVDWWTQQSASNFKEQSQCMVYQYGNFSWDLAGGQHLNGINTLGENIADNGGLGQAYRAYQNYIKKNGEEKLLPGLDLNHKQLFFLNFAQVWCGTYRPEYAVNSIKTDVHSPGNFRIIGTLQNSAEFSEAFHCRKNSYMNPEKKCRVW

In the case of CCOC[C@](C)(C[C@@H](Cc1ccc(-c2cc(Cl)ccc2F)cc1)NC(=O)c1cc(O)no1)C(=O)O [Compound I, (2S,4R)-5-(5′-Chloro-2′-fluoro-[1,1′-biphenyl]-4-yl)-2-(ethoxymethyl)-4-(3-hydroxyisoxazole-5-carboxamido)-2-methylpentanoic Acid], the “time window of the highest cGMP levels” value (NEP [1]; healthy subjects, after a single dose) is reported as 8 to 12 h, the “dose levels at which plasma cGMP dose response shows near maximal effect” value (NEP [1]; healthy subjects, single dose) is reported as ≥ 100 mg and the “change in mean plasma cGMP from baseline” value (NEP [1]; healthy subjects, single dose 50-600 mg, over 24 hours) is reported as “sustained increase in mean plasma cGMP over 24-hours”. For the same compound, the “cGMP in plasma and urine” value (NEP [1]; human, SAD clinical trial, over 24h) was “sustained elevations of cGMP over 24h in both plasma and urine”, the tolerability [2] was “generally well-tolerated” and the “CLlast Mean” value ([3]; PO, 0.1 mg/kg) was 47.2 mL/min/kg. The bioavailability ([3]; higher doses (100-300 mg/kg), data not shown, read-out: mean bioavailability) was 7 to 13%, the bioavailability ([3]; male, beagle, 0.1 mg/kg, read-out: Oral Bioavailability Mean) was ~17% and the AUC(0-t) ([3]; male, beagle, IV, 0.1 mg/kg) was 210 ng·h/mL. It also gave an AUC(0-t) ([3]; male, beagle, PO, 0.1 mg/kg) of 34.9 ng·h/mL, an AUC(0-t) ([4]; male, Sprague-Dawley, IV, 0.5 mg/kg) of 390 ng·h/mL and an AUC(0-t) ([4]; male, Sprague-Dawley, PO, 0.5 mg/kg) of 130 ng·h/mL. The bioavailability ([4]; male, Sprague-Dawley, 0.5 mg/kg, read-out: Oral Bioavailability Mean) was ~33%, the “CLlast Mean” value ([4]; IV, 0.5 mg/kg) was 20.3 mL/min/kg and the “CLlast Mean” value ([4]; PO, 0.5 mg/kg) was 50.2 mL/min/kg. The bioavailability ([4]; higher doses (30-1000 mg/kg), data not shown, read-out: mean bioavailability) was 49 to 79% and the “change in mean plasma cGMP from baseline” value (NEP [5]) was “sustained increase in mean plasma cGMP over 24 h”.
